Reference: ChEMBL document CHEMBL1136657, “Novel ether derivatives of mannopeptimycin glycopeptide antibiotic” (2003)
Converted amounts (≈) assume the structure as drawn.

Legend:
[1] = tested on: Enterococcus faecalis; assay: Minimum inhibitory concentration against Enterococcus faecalis (GC 4553) was determined; assay type: functional
[2] = tested on: Enterococcus faecalis; assay: Minimum inhibitory concentration against Enterococcus faecalis (GC 6189) was determined; assay type: functional
[3] = tested on: Staphylococcus haemolyticus; assay: Minimum inhibitory concentration against Staphylococcus haemolyticus (GC 4546) was determined
[4] = Minimum inhibitory concentration against SCN (GC 4548) was determined; assay type: functional
[5] = tested on: Streptococcus pneumoniae; assay: Minimum inhibitory concentration against Streptococcus pneumoniae (GC 4565) was determined; assay type: functional
[6] = Minimum inhibitory concentration against SCN (GC 4551) was determined; assay type: functional
[7] = tested on: Staphylococcus aureus; assay: Minimum inhibitory concentration against Staphylococcus aureus (GC 4543) was determined; assay type: functional
[8] = tested on: Staphylococcus aureus; assay: Minimum inhibitory concentration against Staphylococcus aureus (GC 1131) was determined; assay type: functional
[9] = tested on: Streptococcus pneumoniae; assay: Minimum inhibitory concentration against Streptococcus pneumoniae (GC 1894) was determined; assay type: functional
[10] = tested on: Enterococcus faecalis; assay: Minimum inhibitory concentration against Enterococcus faecalis (GC 2691) was determined; assay type: functional
[11] = tested on: Staphylococcus aureus; assay: Minimum inhibitory concentration against Staphylococcus aureus (GC 4542) was determined; assay type: functional
[12] = tested on: Pseudomonas aeruginosa; assay: Minimum inhibitory concentration against Pseudomonas aeruginosa (GC 2214) control was determined; assay type: functional
[13] = tested on: Streptococcus agalactiae; assay: Minimum inhibitory concentration against Streptococcus agalactiae (GC4564) was determined; assay type: functional
[14] = tested on: Candida albicans; assay: Minimum inhibitory concentration against Candida albicans GC 3066 was determined; assay type: functional
[15] = tested on: Enterococcus faecium; assay: Minimum inhibitory concentration against Enterococcus faecium (GC 2243) was determined; assay type: functional
[16] = Minimum inhibitory concentration against SCN (GC 4549) was determined; assay type: functional
[17] = tested on: Enterococcus faecalis; assay: Minimum inhibitory concentration against Enterococcus faecalis (GC 4552) was determined; assay type: functional
[18] = tested on: Escherichia coli; assay: Minimum inhibitory concentration against Escherichia coli (GC 4564) was determined; assay type: functional
[19] = tested on: Enterococcus faecium; assay: Minimum inhibitory concentration against Enterococcus faecium (GC 4556) was determined; assay type: functional
[20] = tested on: Morganella morganii; assay: Minimum inhibitory concentration against Morganella morganii (GC 4381) was determined; assay type: functional
[21] = Minimum inhibitory concentration against SCN (GC 6257) was determined; assay type: functional
[22] = tested on: Staphylococcus aureus; assay: Minimum inhibitory concentration against Staphylococcus aureus (GC 2216) was determined; assay type: functional
[23] = tested on: Micrococcus luteus; assay: Minimum inhibitory concentration against Sarcina lutea (GC 4562) was determined; assay type: functional
[24] = tested on: Enterococcus faecalis; assay: Minimum inhibitory concentration against Enterococcus faecalis (GC 2242) was determined; assay type: functional
[25] = tested on: Staphylococcus aureus; assay: Minimum inhibitory concentration against Staphylococcus aureus (GC 3066) was determined; assay type: functional
[26] = tested on: Streptococcus pyogenes; assay: Minimum inhibitory concentration against Streptococcus pyogenes (GC 4563) was determined; assay type: functional
[27] = tested on: Escherichia coli; assay: Minimum inhibitory concentration against Escherichia coli (GC 4560) was determined; assay type: functional
[28] = tested on: Enterococcus faecium; assay: Minimum inhibitory concentration against Enterococcus faecium (GC 4557) was determined; assay type: functional
[29] = tested on: Enterococcus faecalis; assay: Minimum inhibitory concentration against Enterococcus faecalis (GC 4555) was determined; assay type: functional
[30] = tested on: Bacillus cereus; assay: Minimum inhibitory concentration against Bacillus cereus (GC 4561) was determined; assay type: functional
[31] = tested on: Staphylococcus aureus; assay: Minimum inhibitory concentration against Staphylococcus aureus (GC 4541 was determined; assay type: functional
[32] = tested on: Escherichia coli; assay: Minimum inhibitory concentration against Escherichia coli (GC 2203) was determined; assay type: functional
[33] = tested on: Staphylococcus aureus; assay: Minimum inhibitory concentration against Staphylococcus aureus (GC 4545) was determined; assay type: functional
[34] = tested on: Streptococcus pneumoniae; assay: Minimum inhibitory concentration against Streptococcus pneumoniae (GC 6242) was determined; assay type: functional
[35] = tested on: Enterococcus faecalis; assay: Minimum inhibitory concentration against Enterococcus faecalis (GC 4554) was determined; assay type: functional
[36] = tested on: Enterococcus faecalis; assay: Minimum inhibitory concentration against Enterococcus faecalis (GC 3059) was determined; assay type: functional
[37] = Minimum inhibitory concentration against SCN (GC 4547) was determined; assay type: functional
[38] = tested on: Staphylococcus aureus; assay: Minimum inhibitory concentration against Staphylococcus aureus (GC 4544) was determined; assay type: functional
[39] = tested on: Staphylococcus aureus; assay: Minimum inhibitory concentration against Staphylococcus aureus (GC 3051) was determined; assay type: functional
[40] = tested on: Enterococcus avium; assay: Minimum inhibitory concentration against Enterococcus avium (GC 4558) was determined; assay type: functional
[41] = tested on: Mus musculus; assay: In vivo activity against Staphylococcus aureus smith was determined after iv administration in mice; assay type: functional
[42] = tested on: Staphylococcus aureus; assay: Minimum inhibitory concentration against Staphylococcus aureus smith; assay type: functional

COc1ccc2cc(CO[C@@H]3[C@@H](O[C@H]4[C@H](O)[C@H](O)[C@@H](Oc5ccc(C[C@H]6NC(=O)[C@H]([C@@H](C)c7ccccc7)NC(=O)CNC(=O)[C@H](CO)NC(=O)[C@@H]([C@@H](O)[C@@H]7CN=C(N)N7[C@H]7O[C@H](O)[C@@H](O)[C@H](O)[C@@H]7O)NC(=O)[C@H]([C@@H](O)[C@@H]7CN=C(N)N7)NC6=O)cc5)O[C@@H]4CO)O[C@H](CO)[C@@H](O)[C@@H]3O)ccc2c1
MIC [1]: 128 µg/mL (≈ 88.2 µM)
MIC [2]: > 128 µg/mL
MIC [3]: 64 µg/mL (≈ 44.1 µM)
MIC [4]: 64 µg/mL (≈ 44.1 µM)
MIC [5]: 32 µg/mL (≈ 22 µM)
MIC [6]: 64 µg/mL (≈ 44.1 µM)
MIC [7]: 64 µg/mL (≈ 44.1 µM)
MIC [8]: 128 µg/mL (≈ 88.2 µM)
MIC [9]: 16 µg/mL (≈ 11 µM)
MIC [10]: > 128 µg/mL
MIC [11]: > 128 µg/mL
MIC [12]: > 128 µg/mL
MIC [13]: 32 µg/mL (≈ 22 µM)
MIC [14]: > 64 µg/mL
MIC [15]: 128 µg/mL (≈ 88.2 µM)
MIC [16]: 64 µg/mL (≈ 44.1 µM)
MIC [17]: > 128 µg/mL
MIC [18]: > 128 µg/mL
MIC [19]: > 128 µg/mL
MIC [20]: > 128 µg/mL
MIC [21]: 32 µg/mL (≈ 22 µM)
MIC [22]: 128 µg/mL (≈ 88.2 µM)
MIC [23]: 16 µg/mL (≈ 11 µM)
MIC [24]: > 128 µg/mL
MIC [25]: 128 µg/mL (≈ 88.2 µM)
MIC [26]: 64 µg/mL (≈ 44.1 µM)
MIC [27]: 32 µg/mL (≈ 22 µM)
MIC [28]: 32 µg/mL (≈ 22 µM)
MIC [29]: > 128 µg/mL
MIC [30]: 128 µg/mL (≈ 88.2 µM)
MIC [31]: 64 µg/mL (≈ 44.1 µM)
MIC [32]: > 128 µg/mL
MIC [33]: 128 µg/mL (≈ 88.2 µM)
MIC [34]: 32 µg/mL (≈ 22 µM)
MIC [35]: > 128 µg/mL
MIC [36]: > 128 µg/mL
MIC [37]: 64 µg/mL (≈ 44.1 µM)
MIC [38]: 128 µg/mL (≈ 88.2 µM)
MIC [39]: 128 µg/mL (≈ 88.2 µM)
MIC [40]: 128 µg/mL (≈ 88.2 µM)

COc1ccc2cc(CO[C@H]3[C@H](O)[C@@H](CO)OC(O[C@H]4[C@H](O)[C@H](O)[C@@H](Oc5ccc(C[C@H]6NC(=O)[C@H]([C@@H](C)c7ccccc7)NC(=O)CNC(=O)[C@H](CO)NC(=O)[C@@H]([C@@H](O)[C@@H]7CN=C(N)N7[C@H]7O[C@H](O)[C@@H](O)[C@H](O)[C@@H]7O)NC(=O)[C@H]([C@@H](O)[C@@H]7CN=C(N)N7)NC6=O)cc5)O[C@@H]4CO)[C@H]3O)ccc2c1 (some centres not stated)
MIC [1]: 8 µg/mL (≈ 5.51 µM)
MIC [2]: 4 µg/mL (≈ 2.76 µM)
MIC [3]: 1 µg/mL (≈ 0.689 µM)
MIC [4]: 1 µg/mL (≈ 0.689 µM)
MIC [5]: 0.25 µg/mL (≈ 0.172 µM)
MIC [6]: 2 µg/mL (≈ 1.38 µM)
MIC [7]: 2 µg/mL (≈ 1.38 µM)
MIC [8]: 4 µg/mL (≈ 2.76 µM)
MIC [9]: 0.12 µg/mL (≈ 0.0827 µM)
MIC [10]: 8 µg/mL (≈ 5.51 µM)
MIC [11]: 1 µg/mL (≈ 0.689 µM)
MIC [12]: > 128 µg/mL
MIC [13]: 0.5 µg/mL (≈ 0.344 µM)
MIC [14]: > 64 µg/mL
MIC [15]: 8 µg/mL (≈ 5.51 µM)
MIC [16]: 1 µg/mL (≈ 0.689 µM)
MIC [17]: 8 µg/mL (≈ 5.51 µM)
MIC [18]: 128 µg/mL (≈ 88.2 µM)
MIC [19]: 8 µg/mL (≈ 5.51 µM)
MIC [20]: > 128 µg/mL
MIC [21]: 1 µg/mL (≈ 0.689 µM)
MIC [22]: 2 µg/mL (≈ 1.38 µM)
MIC [23]: 0.25 µg/mL (≈ 0.172 µM)
MIC [24]: 8 µg/mL (≈ 5.51 µM)
MIC [25]: 2 µg/mL (≈ 1.38 µM)
MIC [26]: 0.5 µg/mL (≈ 0.344 µM)
MIC [27]: 1 µg/mL (≈ 0.689 µM)
MIC [28]: 0.25 µg/mL (≈ 0.172 µM)
MIC [29]: 8 µg/mL (≈ 5.51 µM)
MIC [30]: 2 µg/mL (≈ 1.38 µM)
MIC [31]: 2 µg/mL (≈ 1.38 µM)
MIC [32]: 128 µg/mL (≈ 88.2 µM)
MIC [33]: 2 µg/mL (≈ 1.38 µM)
MIC [34]: 0.25 µg/mL (≈ 0.172 µM)
MIC [35]: 8 µg/mL (≈ 5.51 µM)
MIC [36]: 8 µg/mL (≈ 5.51 µM)
MIC [37]: 2 µg/mL (≈ 1.38 µM)
MIC [38]: 4 µg/mL (≈ 2.76 µM)
MIC [39]: 2 µg/mL (≈ 1.38 µM)
MIC [40]: 2 µg/mL (≈ 1.38 µM)

COc1ccc2cc(COC[C@H]3O[C@H](O[C@H]4[C@H](O)[C@H](O)[C@@H](Oc5ccc(C[C@H]6NC(=O)[C@H]([C@@H](C)c7ccccc7)NC(=O)CNC(=O)[C@H](CO)NC(=O)[C@@H]([C@@H](O)[C@@H]7CN=C(N)N7[C@H]7O[C@H](O)[C@@H](O)[C@H](O)[C@@H]7O)NC(=O)[C@H]([C@@H](O)[C@@H]7CN=C(N)N7)NC6=O)cc5)O[C@@H]4CO)[C@@H](O)[C@@H](O)[C@@H]3O)ccc2c1
MIC [1]: 8 µg/mL (≈ 5.51 µM)
MIC [2]: 4 µg/mL (≈ 2.76 µM)
MIC [3]: 1 µg/mL (≈ 0.689 µM)
MIC [4]: 0.5 µg/mL (≈ 0.344 µM)
MIC [5]: 0.5 µg/mL (≈ 0.344 µM)
MIC [6]: 2 µg/mL (≈ 1.38 µM)
MIC [7]: 1 µg/mL (≈ 0.689 µM)
MIC [8]: 2 µg/mL (≈ 1.38 µM)
MIC [9]: 8 µg/mL (≈ 5.51 µM)
MIC [10]: 0.25 µg/mL (≈ 0.172 µM)
MIC [11]: 2 µg/mL (≈ 1.38 µM)
MIC [12]: 0.12 µg/mL (≈ 0.0827 µM)
MIC [13]: 0.25 µg/mL (≈ 0.172 µM)
MIC [14]: > 64 µg/mL
MIC [15]: 8 µg/mL (≈ 5.51 µM)
MIC [16]: 1 µg/mL (≈ 0.689 µM)
MIC [17]: 8 µg/mL (≈ 5.51 µM)
MIC [18]: > 64 µg/mL
MIC [19]: 8 µg/mL (≈ 5.51 µM)
MIC [20]: > 64 µg/mL
MIC [21]: 0.5 µg/mL (≈ 0.344 µM)
MIC [22]: 2 µg/mL (≈ 1.38 µM)
MIC [23]: 2 µg/mL (≈ 1.38 µM)
MIC [24]: 8 µg/mL (≈ 5.51 µM)
ED50 [41]: 0.12 mg/kg
MIC [25]: 2 µg/mL (≈ 1.38 µM)
MIC [26]: 8 µg/mL (≈ 5.51 µM)
MIC [27]: > 64 µg/mL
MIC [28]: 8 µg/mL (≈ 5.51 µM)
MIC [29]: 8 µg/mL (≈ 5.51 µM)
MIC [30]: 64 µg/mL (≈ 44.1 µM)
MIC [31]: 1 µg/mL (≈ 0.689 µM)
MIC [32]: 1 µg/mL (≈ 0.689 µM)
MIC [33]: 1 µg/mL (≈ 0.689 µM)
MIC [42]: 1 µg/mL (≈ 0.689 µM)
MIC [34]: ≤ 0.06 µg/mL
MIC [35]: 8 µg/mL (≈ 5.51 µM)
MIC [36]: 4 µg/mL (≈ 2.76 µM)
MIC [37]: 1 µg/mL (≈ 0.689 µM)
MIC [38]: 2 µg/mL (≈ 1.38 µM)
MIC [39]: 0.12 µg/mL (≈ 0.0827 µM)
MIC [40]: 2 µg/mL (≈ 1.38 µM)
